Laboratory results taken from ChEMBL document CHEMBL2311352, “Discovery of 4-phenyl-2-phenylaminopyridine based TNIK inhibitors” (Bioorg Med Chem Lett, 2013).

Columns and labels:
[1] = molecular target: T1, TRAF2 and NCK-interacting protein kinase (Homo sapiens, UniProt Q9UKE5); experiment: Ratio of IC50 for TNIK-mediated TCF4/[…] transcription in human HCT116 cells to IC50 for TNIK (unknown origin); assay type: cell-based; details: HCT-116
[2] = molecular target: CDK9/cyclin T1 (Homo sapiens) (UniProt O60563+P50750); experiment: Inhibition of CDK9/cyclin T1 (unknown origin) at 1 uM; assay type: protein-complex assay
[3] = molecular target: Serine/threonine-protein kinase Nek1 (Homo sapiens) (UniProt Q96PY6); experiment: Inhibition of NEK1 (unknown origin) at 1 uM
[4] = molecular target: Tyrosine-protein kinase ABL2 (Homo sapiens) (UniProt P42684); experiment: Inhibition of ABL2 (unknown origin) at 1 uM
[5] = molecular target: Proto-oncogene tyrosine-protein kinase Src (Homo sapiens) (UniProt P12931); experiment: Inhibition of c-SRC (unknown origin) at 1 uM
[6] = molecular target: Protein kinase C delta type (Homo sapiens) (UniProt Q05655); experiment: Inhibition of PKCdelta (unknown origin) at 1 uM
[7] = molecular target: Mast/stem cell growth factor receptor Kit (Homo sapiens) (UniProt P10721); experiment: Inhibition of c-KIT (unknown origin) at 1 uM
[8] = molecular target: Dual specificity mitogen-activated protein kinase kinase 1 (Homo sapiens) (UniProt Q02750); experiment: Inhibition of MEK1 (unknown origin) at 1 uM
[9] = molecular target: Tyrosine-protein kinase JAK1 (Homo sapiens) (UniProt P23458); experiment: Inhibition of JAK1 (unknown origin) at 1 uM
[10] = molecular target: High affinity nerve growth factor receptor (Homo sapiens) (UniProt P04629); experiment: Inhibition of TRKA (unknown origin) at 1 uM
[11] = molecular target: Tyrosine-protein kinase Lyn (Homo sapiens) (UniProt P07948); experiment: Inhibition of LYN (unknown origin) at 1 uM
[12] = molecular target: Vascular endothelial growth factor receptor 2 (Homo sapiens) (UniProt P35968); experiment: Inhibition of VEGFR2 (unknown origin) at 1 uM
[13] = molecular target: Tyrosine-protein kinase receptor UFO (Homo sapiens) (UniProt P30530); experiment: Inhibition of AXL (unknown origin) at 1 uM
[14] = molecular target: Protein kinase C theta type (Homo sapiens) (UniProt Q04759); experiment: Inhibition of PKCtheta (unknown origin) at 1 uM
[15] = molecular target: Tyrosine-protein kinase HCK (Homo sapiens) (UniProt P08631); experiment: Inhibition of HCK (unknown origin) at 1 uM
[16] = molecular target: Tyrosine-protein kinase Lck (Homo sapiens) (UniProt P06239); experiment: Inhibition of LCK (unknown origin) at 1 uM
[17] = molecular target: Tyrosine-protein kinase Fer (Homo sapiens) (UniProt P16591); experiment: Inhibition of FER (unknown origin) at 1 uM
[18] = molecular target: Serine/threonine-protein kinase 26 (Homo sapiens) (UniProt Q9P289); experiment: Inhibition of MST4 (unknown origin) at 1 uM
[19] = molecular target: Proto-oncogene tyrosine-protein kinase receptor Ret (Homo sapiens) (UniProt P07949); experiment: Inhibition of RET (unknown origin) at 1 uM
[20] = molecular target: Tyrosine-protein kinase Fgr (Homo sapiens) (UniProt P09769); experiment: Inhibition of FGR (unknown origin) at 1 uM
[21] = system: Caco-2; experiment: Ratio of apparent permeability across basolateral to apical side over apical to basolateral side in human Caco2 cells; assay type: ADME, cell-based
[22] = molecular target: Vascular endothelial growth factor receptor 3 (Homo sapiens) (UniProt P35916); experiment: Inhibition of VEGFR3 (unknown origin) at 1 uM
[23] = molecular target: Vascular endothelial growth factor receptor 1 (Homo sapiens) (UniProt P17948); experiment: Inhibition of VEGFR1 (unknown origin) at 1 uM
[24] = molecular target: Serine/threonine-protein kinase Chk2 (Homo sapiens) (UniProt O96017); experiment: Inhibition of CHK2 (unknown origin) at 1 uM
[25] = molecular target: Angiopoietin-1 receptor (Homo sapiens) (UniProt Q02763); experiment: Inhibition of TIE2 (unknown origin) at 1 uM
[26] = molecular target: Fibroblast growth factor receptor 2 (Homo sapiens) (UniProt P21802); experiment: Inhibition of FGFR2 (unknown origin) at 1 uM
[27] = molecular target: T1, TRAF2 and NCK-interacting protein kinase; experiment: Competitive binding affinity to TNIK (unknown origin) in presence of ATP
Target sequence in this assay (Q9UKE5 whole entry): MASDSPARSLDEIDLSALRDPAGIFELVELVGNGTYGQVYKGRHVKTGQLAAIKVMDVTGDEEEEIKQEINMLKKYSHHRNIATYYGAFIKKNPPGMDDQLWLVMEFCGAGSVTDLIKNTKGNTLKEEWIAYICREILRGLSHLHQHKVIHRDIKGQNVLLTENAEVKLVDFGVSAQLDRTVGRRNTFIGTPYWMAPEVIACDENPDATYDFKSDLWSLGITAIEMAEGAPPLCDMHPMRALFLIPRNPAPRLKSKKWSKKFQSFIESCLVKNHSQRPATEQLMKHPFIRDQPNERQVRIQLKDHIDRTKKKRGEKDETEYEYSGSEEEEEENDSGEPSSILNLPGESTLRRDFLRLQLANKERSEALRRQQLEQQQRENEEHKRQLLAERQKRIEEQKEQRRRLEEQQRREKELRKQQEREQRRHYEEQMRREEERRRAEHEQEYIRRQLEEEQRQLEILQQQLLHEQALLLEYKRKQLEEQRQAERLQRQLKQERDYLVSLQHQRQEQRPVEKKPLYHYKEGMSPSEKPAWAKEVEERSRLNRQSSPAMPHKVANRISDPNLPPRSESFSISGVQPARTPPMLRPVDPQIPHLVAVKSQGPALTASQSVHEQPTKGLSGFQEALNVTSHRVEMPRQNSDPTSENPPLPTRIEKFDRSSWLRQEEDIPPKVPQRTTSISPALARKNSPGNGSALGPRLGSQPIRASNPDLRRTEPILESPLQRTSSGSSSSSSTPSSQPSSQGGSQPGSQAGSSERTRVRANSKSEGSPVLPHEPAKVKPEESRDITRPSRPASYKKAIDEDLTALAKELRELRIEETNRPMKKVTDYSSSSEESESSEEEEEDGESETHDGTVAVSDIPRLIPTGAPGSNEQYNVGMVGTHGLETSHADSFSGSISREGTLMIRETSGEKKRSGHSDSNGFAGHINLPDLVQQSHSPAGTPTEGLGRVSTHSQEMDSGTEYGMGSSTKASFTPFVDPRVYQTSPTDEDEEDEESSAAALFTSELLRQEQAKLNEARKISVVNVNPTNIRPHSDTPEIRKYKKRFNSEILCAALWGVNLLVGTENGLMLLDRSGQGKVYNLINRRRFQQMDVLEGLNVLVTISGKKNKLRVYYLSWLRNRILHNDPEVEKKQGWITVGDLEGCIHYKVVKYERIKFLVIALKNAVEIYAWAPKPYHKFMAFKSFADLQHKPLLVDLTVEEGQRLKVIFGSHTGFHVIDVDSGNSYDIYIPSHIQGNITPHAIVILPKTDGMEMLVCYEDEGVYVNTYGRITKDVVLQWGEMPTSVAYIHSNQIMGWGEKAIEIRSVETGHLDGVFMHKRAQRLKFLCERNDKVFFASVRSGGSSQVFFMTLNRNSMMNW

[28] = molecular target: Receptor-type tyrosine-protein kinase FLT3 (Homo sapiens) (UniProt P36888); experiment: Inhibition of FLT3 (unknown origin) at 1 uM
[29] = molecular target: Protein kinase C epsilon (Homo sapiens) (UniProt Q02156); experiment: Inhibition of PKCepsilon (unknown origin) at 1 uM
[30] = molecular target: Aurora kinase C (Homo sapiens) (UniProt Q9UQB9); experiment: Inhibition of aurora C (unknown origin) at 1 uM
[31] = molecular target: Ephrin type-B receptor 1 (Homo sapiens) (UniProt P54762); experiment: Inhibition of EPHB1 (unknown origin) at 1 uM
[32] = molecular target: Inhibitor of nuclear factor kappa-B kinase subunit epsilon (Homo sapiens) (UniProt Q14164); experiment: Inhibition of IKKepsilon (unknown origin) at 1 uM
[33] = molecular target: Death-associated protein kinase 1 (Homo sapiens) (UniProt P53355); experiment: Inhibition of DAPK1 (unknown origin) at 1 uM
[34] = molecular target: Dual specificity mitogen-activated protein kinase kinase 2 (Homo sapiens) (UniProt P36507); experiment: Inhibition of MEK2 (unknown origin) at 1 uM
[35] = molecular target: Homeodomain-interacting protein kinase 4 (Homo sapiens) (UniProt Q8NE63); experiment: Inhibition of HIPK4 (unknown origin) at 1 uM
[36] = molecular target: Aurora kinase B (Homo sapiens) (UniProt Q96GD4); experiment: Inhibition of aurora B (unknown origin) at 1 uM
[37] = molecular target: CDK6/cyclin D1 (Homo sapiens) (UniProt P24385+Q00534); experiment: Inhibition of CDK6/Cyclin D1 (unknown origin) at 1 uM; assay type: protein-complex assay
[38] = molecular target: Ephrin type-A receptor 1 (Homo sapiens) (UniProt P21709); experiment: Inhibition of EPHA1 (unknown origin) at 1 uM
[39] = molecular target: Tyrosine-protein kinase JAK2 (Homo sapiens) (UniProt O60674); experiment: Inhibition of JAK2 (unknown origin) at 1 uM
[40] = molecular target: T1, TRAF2 and NCK-interacting protein kinase; experiment: Inhibition of TNIK-mediated TCF4/[…] transcription in human HCT116 cells by beta-lactamase reporter gene assay; assay type: cell-based, HCT-116
Target sequence in this assay (Q9UKE5 whole entry): as above

[41] = molecular target: Aurora kinase A (Homo sapiens) (UniProt O14965); experiment: Inhibition of aurora A (unknown origin) at 1 uM
[42] = molecular target: Protein-tyrosine kinase 6 (Homo sapiens) (UniProt Q13882); experiment: Inhibition of BRK (unknown origin) at 1 uM
[43] = molecular target: Cyclin-dependent kinase 1/cyclin B1 (Homo sapiens) (UniProt P06493+P14635); experiment: Inhibition of CDK1/cyclin B (unknown origin) at 1 uM; assay type: protein-complex assay
[44] = molecular target: Serine/threonine-protein kinase Chk1 (Homo sapiens) (UniProt O14757); experiment: Inhibition of CHK1 (unknown origin) at 1 uM

Sequence of Protein-tyrosine kinase 6 (Homo sapiens) (Q13882 whole entry, looked up): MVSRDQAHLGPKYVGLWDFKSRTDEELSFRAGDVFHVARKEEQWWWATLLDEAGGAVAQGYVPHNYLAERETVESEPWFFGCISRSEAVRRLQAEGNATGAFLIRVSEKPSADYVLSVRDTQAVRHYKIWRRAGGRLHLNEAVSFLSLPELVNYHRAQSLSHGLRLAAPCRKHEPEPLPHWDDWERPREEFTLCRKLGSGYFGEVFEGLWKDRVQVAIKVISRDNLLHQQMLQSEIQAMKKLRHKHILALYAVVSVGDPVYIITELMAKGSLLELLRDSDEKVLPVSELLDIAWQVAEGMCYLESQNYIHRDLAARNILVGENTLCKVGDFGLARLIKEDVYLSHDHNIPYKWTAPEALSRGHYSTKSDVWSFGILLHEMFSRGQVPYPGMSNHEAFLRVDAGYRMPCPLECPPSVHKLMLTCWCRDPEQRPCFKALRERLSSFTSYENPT
Sequence of Proto-oncogene tyrosine-protein kinase receptor Ret (Homo sapiens) (P07949 whole entry): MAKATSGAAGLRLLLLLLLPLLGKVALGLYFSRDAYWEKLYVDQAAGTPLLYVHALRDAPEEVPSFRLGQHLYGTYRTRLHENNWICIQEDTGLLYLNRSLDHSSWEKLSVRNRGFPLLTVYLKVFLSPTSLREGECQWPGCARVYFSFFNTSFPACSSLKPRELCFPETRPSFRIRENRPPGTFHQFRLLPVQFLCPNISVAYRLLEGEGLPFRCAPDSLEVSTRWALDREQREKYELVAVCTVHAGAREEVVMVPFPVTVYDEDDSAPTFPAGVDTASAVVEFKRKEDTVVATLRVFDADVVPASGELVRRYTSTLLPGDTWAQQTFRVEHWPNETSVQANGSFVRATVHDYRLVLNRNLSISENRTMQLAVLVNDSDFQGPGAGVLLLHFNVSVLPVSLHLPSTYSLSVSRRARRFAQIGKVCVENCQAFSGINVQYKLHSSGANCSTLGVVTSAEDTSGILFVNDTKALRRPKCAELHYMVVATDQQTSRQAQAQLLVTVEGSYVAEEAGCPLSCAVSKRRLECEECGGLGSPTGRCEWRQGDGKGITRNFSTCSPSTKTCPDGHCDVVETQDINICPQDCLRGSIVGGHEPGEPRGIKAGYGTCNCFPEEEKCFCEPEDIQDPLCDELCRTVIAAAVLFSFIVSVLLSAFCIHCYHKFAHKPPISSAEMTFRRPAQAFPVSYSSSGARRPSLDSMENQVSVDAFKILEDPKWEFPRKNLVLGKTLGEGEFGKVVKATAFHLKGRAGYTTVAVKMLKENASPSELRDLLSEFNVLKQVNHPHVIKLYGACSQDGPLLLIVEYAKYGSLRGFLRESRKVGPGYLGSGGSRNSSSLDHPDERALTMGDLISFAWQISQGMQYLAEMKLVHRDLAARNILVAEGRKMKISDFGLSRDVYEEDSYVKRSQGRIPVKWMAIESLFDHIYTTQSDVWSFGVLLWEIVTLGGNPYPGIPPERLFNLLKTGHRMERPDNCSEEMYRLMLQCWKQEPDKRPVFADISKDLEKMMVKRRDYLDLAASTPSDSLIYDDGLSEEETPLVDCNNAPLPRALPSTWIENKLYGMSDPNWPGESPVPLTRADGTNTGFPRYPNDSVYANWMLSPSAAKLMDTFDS
Sequence of Aurora kinase B (Homo sapiens) (Q96GD4 whole entry): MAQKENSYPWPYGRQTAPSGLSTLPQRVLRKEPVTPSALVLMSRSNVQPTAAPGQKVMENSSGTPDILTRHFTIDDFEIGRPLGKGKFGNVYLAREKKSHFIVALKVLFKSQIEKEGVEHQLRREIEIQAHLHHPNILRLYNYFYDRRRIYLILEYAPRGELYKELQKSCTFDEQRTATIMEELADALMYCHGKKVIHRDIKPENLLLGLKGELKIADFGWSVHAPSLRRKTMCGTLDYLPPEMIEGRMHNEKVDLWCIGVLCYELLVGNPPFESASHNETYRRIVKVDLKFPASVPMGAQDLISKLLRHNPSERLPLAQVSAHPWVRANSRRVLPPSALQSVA
Sequence of Vascular endothelial growth factor receptor 3 (Homo sapiens) (P35916 whole entry): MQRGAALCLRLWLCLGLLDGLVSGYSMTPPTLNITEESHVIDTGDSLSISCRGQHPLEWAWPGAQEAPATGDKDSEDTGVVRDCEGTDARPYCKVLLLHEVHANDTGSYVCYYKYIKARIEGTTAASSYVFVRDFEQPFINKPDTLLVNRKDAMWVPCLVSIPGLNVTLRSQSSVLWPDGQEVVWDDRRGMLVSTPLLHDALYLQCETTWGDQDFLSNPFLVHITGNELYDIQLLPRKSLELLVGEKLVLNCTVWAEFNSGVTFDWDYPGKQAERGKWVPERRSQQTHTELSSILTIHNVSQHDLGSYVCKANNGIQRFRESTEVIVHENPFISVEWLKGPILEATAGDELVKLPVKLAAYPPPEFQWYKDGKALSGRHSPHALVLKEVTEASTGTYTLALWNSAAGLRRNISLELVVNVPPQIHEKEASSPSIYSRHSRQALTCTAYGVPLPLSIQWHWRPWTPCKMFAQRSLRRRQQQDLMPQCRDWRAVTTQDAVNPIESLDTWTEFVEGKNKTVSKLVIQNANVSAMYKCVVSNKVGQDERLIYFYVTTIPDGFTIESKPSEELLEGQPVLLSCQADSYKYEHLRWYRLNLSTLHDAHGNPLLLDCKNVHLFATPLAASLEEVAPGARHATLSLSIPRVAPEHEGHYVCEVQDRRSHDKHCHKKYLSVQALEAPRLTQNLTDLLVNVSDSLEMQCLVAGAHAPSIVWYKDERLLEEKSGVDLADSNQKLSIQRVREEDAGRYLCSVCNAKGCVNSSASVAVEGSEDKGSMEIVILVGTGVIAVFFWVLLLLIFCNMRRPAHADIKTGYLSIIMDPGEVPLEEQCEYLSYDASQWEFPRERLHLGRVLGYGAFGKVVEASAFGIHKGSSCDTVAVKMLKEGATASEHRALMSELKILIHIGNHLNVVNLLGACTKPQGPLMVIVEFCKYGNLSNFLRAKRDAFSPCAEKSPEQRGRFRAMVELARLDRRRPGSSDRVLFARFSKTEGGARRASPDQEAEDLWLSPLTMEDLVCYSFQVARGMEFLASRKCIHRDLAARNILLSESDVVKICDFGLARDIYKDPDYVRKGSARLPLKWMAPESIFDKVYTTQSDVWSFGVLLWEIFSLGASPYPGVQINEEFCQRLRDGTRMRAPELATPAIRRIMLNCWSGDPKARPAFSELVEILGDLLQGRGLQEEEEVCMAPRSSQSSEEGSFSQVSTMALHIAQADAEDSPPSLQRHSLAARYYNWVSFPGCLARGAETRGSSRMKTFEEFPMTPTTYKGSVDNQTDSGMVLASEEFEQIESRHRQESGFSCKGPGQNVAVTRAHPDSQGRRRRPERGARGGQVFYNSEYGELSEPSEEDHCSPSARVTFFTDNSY
Sequence of Dual specificity mitogen-activated protein kinase kinase 2 (Homo sapiens) (P36507 whole entry): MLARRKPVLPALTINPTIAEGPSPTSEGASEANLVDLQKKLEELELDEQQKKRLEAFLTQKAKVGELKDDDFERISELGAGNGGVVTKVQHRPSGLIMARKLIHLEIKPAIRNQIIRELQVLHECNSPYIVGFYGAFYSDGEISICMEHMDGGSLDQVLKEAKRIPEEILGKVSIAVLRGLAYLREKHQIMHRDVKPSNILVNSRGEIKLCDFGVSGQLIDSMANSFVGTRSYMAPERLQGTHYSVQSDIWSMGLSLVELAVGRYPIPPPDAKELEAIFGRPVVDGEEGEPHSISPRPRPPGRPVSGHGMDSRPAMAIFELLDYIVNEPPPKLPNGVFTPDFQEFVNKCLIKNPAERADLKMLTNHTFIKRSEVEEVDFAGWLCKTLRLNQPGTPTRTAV

Ratio IC50 [1]: 5.4
inhibition [2]: > 50%
inhibition [3]: > 80%
inhibition [4]: > 80%
inhibition [5]: > 80%
inhibition [6]: 50%
inhibition [7]: > 80%
inhibition [8]: > 80%
inhibition [9]: > 80%
inhibition [10]: > 80%
inhibition [11]: > 80%
inhibition [12]: > 95%
inhibition [13]: > 80%
inhibition [14]: 50%
inhibition [15]: 50%
inhibition [16]: > 80%
inhibition [17]: > 80%
inhibition [18]: 50%
inhibition [19]: > 95%
inhibition [20]: 50%
Ratio [21]: 0.96
inhibition [22]: > 95%
inhibition [23]: > 95%
inhibition [24]: > 80%
inhibition [25]: 50%
inhibition [26]: > 95%
Kd [27]: 86 nM
inhibition [28]: > 95%
inhibition [29]: 50%
inhibition [30]: > 80%
inhibition [31]: 50%
inhibition [32]: > 95%
inhibition [34]: > 80%
inhibition [35]: > 80%
inhibition [36]: > 80%
inhibition [37]: > 80%
inhibition [38]: 50%
inhibition [39]: > 95%
IC50 [40]: 350 nM
inhibition [41]: > 95%
inhibition [42]: > 80%
inhibition [43]: > 50%
inhibition [44]: > 80%
Compound: COc1cc(Nc2ncc(Cl)c(-c3cccc(CC#N)c3)n2)ccc1N1CCN(C)CC1
inhibition [33]: > 80%
